Experimental data reported in US12378263B2, “Modulators of sestrin-GATOR2 interaction and uses thereof” (Navitor Pharmaceuticals, Inc., priority 2015, dated 2025).

What follows are compounds tested against T1, Sestrin2 (Homo sapiens, UniProt P58004) (assay: Indirect ligand binding assay (ILBA, Method 7), immunoprecipitation with CST anti-Sestrin2 antibody). Conditions: crude lysate of amino acid starved human cell line, 1 hour incubation.
T1 construct: crude lysate generated from a human cell line; endogenous in cells; host or cells: Unnamed human cell line (crude lysate)
T1 sequence (P58004 1-480): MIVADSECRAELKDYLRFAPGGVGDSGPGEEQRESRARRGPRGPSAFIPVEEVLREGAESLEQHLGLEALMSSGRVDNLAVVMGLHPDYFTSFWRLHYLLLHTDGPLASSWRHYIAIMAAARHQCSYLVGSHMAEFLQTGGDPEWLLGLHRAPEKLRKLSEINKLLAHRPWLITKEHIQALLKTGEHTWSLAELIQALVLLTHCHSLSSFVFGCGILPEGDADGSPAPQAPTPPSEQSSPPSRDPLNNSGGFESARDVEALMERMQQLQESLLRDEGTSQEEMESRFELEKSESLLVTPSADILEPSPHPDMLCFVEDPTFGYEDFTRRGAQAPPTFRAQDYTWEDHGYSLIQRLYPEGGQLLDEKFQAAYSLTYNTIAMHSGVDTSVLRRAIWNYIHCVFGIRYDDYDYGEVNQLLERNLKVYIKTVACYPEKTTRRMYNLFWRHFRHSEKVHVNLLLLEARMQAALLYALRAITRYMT
Experimental: Conversely, compounds that destabilized Sestrin2 as measured by thermal shift assay increased the affinity of the CST antibody for non-denatured Sestrin2. […] In one version, the assay was performed with crude lysate generated from a human cell line after a 1-hour period of amino acid starvation (cells are lysed in 1% Triton, 10 mM beta-glycerol phosphate, 10 mM sodium pyrophosphate, 40 mM HEPES [pH 7.4], 150 mM NaCl and 2.5 mM MgCl2). […] After compound incubation, samples were subjected to immunoprecipitation with the CST anti-Sestrin2 antibody for 1.5 hours followed by a 30-minute incubation with protein-A sepharose as described in L. Chantranupong, et al., Cell Reports 9:1-8 (2014). The sepharose conjugated antibody-protein complex was precipitated via centrifugation and the flow-through was subjected to a second round of immunoprecipitation with a rabbit polyclonal anti-Sestrin2 antibody (Protein Tech, #10795-1-AP) to determine that total Sestrin2 protein levels between samples were equal. SDS-PAGE was performed with the immunoprecipitation samples followed by western-blot with the mouse monoclonal anti-Sestrin2 antibody from SIGMA (cat #WH0083667M3). […] This version of the assay also measured increased instability of Sestrin2 induced by incubation with compounds.
For CC(C)C[C@H](N)C(=O)O [leucine], the “decrease in the intensity of the band corresponding to Sestrin2 (CST antibody immunoprecipitation)” value was at least 50%.

These compounds were tested on mTORC1 (assay: Cell-based mTORC1 activation (Method 2), western blot of phosphorylated S6 Kinase and 4EBP1 in HEK293T cells). Conditions: 100 μM; shift relative to DMSO control; HEK293T cells after leucine starvation.
Experimental: Briefly, 800,000 HEK293T cells were plated in each well of a 6-well plate in DMEM supplemented with 10% fetal bovine serum and antibiotics. […] Cells were then lysed, processed for SDS-PAGE and western blotting was performed with antibodies directed against the mTORC1 substrates phosphorylated S6 Kinase (Thr389) and phosphorylated 4EBP1 (Thr37/46) (Cell Signaling Technology) and loading controls (beta-actin, Santa Cruz Biotechnology) as described in Kang, S. A., et al. Science 341(6144): 364-374 (2013). The intensity of the bands corresponding to the phosphorylated substrates were then normalized to the actin band using the LI-COR® imaging platform.
For CC(C)C(F)(F)[C@H](N)C(=O)O [Example I-46, (R)-2-amino-3,3-difluoro-4-methylpentanoic acid], the “Cell-Based mTORC1 Activation” value was “D (a shift relative to DMSO control of 0.5 to 2 fold)”.
With NC(CCCC(F)(F)F)C(=O)O (stereo not drawn) [Example I-42] the “Cell-Based mTORC1 Activation” value was “D to F”.
With CC(C)C[C@H](N)C(N)=O.Cl [Example I-23] the “Cell-Based mTORC1 Activation” value was “D to F”.
For CC(C)(C)C[C@H](N)C(=O)O [Example I-43], the “Cell-Based mTORC1 Activation” value was “D to E”.
In the case of N[C@@H](CC1CCC1)C(=O)O [Example I-37], the “Cell-Based mTORC1 Activation” value is reported as “E to F”.
With N[C@H](CCCC(F)(F)F)C(=O)O [Example I-9, (R)-2-amino-6,6,6-trifluorohexanoic acid] the “Cell-Based mTORC1 Activation” value was “E (a shift relative to DMSO of 2.1-5 fold)”.
In the case of C[C@H](CC(N)C(=O)O)C(F)(F)F (stereo in doubt) [Example I-167, (2R,4R)-2-amino-5,5,5-trifluoro-4-methylpentanoic acid], the “Cell-Based mTORC1 Activation” value is reported as “D to F”.
In the case of CC(C)C[C@H](N)C(=O)O [Example I-44], the “Cell-Based mTORC1 Activation” value is reported as “D (a shift relative to DMSO control of 0.5 to 2 fold)”.
In the case of COC(=O)[C@@H](N)CC(C)C [Example I-168], the “Cell-Based mTORC1 Activation” value is reported as “D to E”.
CC(C)C(F)(F)[C@@H](N)C(=O)O [Example I-47, (S)-2-amino-3,3-difluoro-4-methylpentanoic acid] was tested, and the “Cell-Based mTORC1 Activation” value was “D (a shift relative to DMSO control of 0.5 to 2 fold)”.

Same assay, conditions: 30 and 100 μM; shift relative to DMSO control; HEK293T cells after leucine starvation
In the case of CC(C)C[C@@H](N)B1OC(C)(C)C(C)(C)O1 [Example I-10], the “Cell-Based mTORC1 Activation” value is reported as “D (a shift relative to DMSO control of 0.5 to 2 fold)”.

What follows are compounds tested against T2, GATOR2/Sestrin2 complexes (Homo sapiens, UniProt P58004) (assay: In vitro PPI assay (Method 1): Sestrin2 bound to GATOR2, western blot, % activity relative to leucine). Conditions: compound at 25 μM; leucine 25 μM = 100% activity; duplicate.
T2 construct: The Flag-WDR24/endogenous-Sestrin2 complex was isolated as follows; expressed in transfected cells; host or cells: HEK293T cells stably expressing FLAG-WDR24 (lentiviral vector pLJM60); Sestrin2 and the remaining GATOR2 subunits are endogenous
T2 sequence (P58004 1-480): T1 sequence (P58004 1-480)
Assay type: binding
Description: This screening assay measured test compound activity in vitro on GATOR2/Sestrin2 complexes purified via immunoprecipitation of stably expressed FLAG-WDR24 from HEK293T cells. HEK293T cells (293 Ts) were engineered to stably express N-terminally tagged FLAG-WDR24 via transduction by lentivirus. Lentiviruses were produced by co-transfection of the lentiviral transfer vector pLJM60 with the […] into HEK-293T cells using the XTremeGene 9 transfection reagent (Roche Diagnostics). The media was changed 24 hours post-transfection to Dulbecco's Modified Eagle's media (DMEM) supplemented with 30% Inactivated Fetal Serum. The virus-containing supernatants were collected 48 and 72 hours after transfection and passed through a 0.45 μm filter to eliminate cells. Target cells in 6-well tissue culture plates were infected in media containing 8 μg/mL polybrene and spin infections were performed by centrifugation at 2,200 rpm for 1 hour. Twenty-four hours after infection, the virus was removed and the cells selected with the appropriate antibiotic. Cells were then grown in DMEM supplemented with 10% fetal bovine serum and antibiotics.
Seventy-two hours later, cells were placed in standard RPMI media formulated with no amino acids and supplemented with 5 mM Glucose (−AA RPMI, US Biological Life Sciences) for 1 hour then subsequently lysed in lysis buffer (40 mM HEPES, 1% Triton, 10 mM sodium β-glycerophosphate, 10 mM sodium pyrophosphate, 2.5 mM MgCl2 and protease inhibitors). […]
The resulting western blots were scanned and band intensities corresponding to Sestrin2 and FLAG-WDR24 were quantified using the LI-COR® imaging platform. […]
This screening assay measured compound activity in vitro on GATOR2/Sestrin2 complexes purified via immunoprecipitation of stably expressed Flag-WDR24 from HEK293T cells. […]
For CC(C)C[C@H](N)S(=O)(=O)O [Example I-157], the “Activity of Leucine: % Activity” value was “B to C”.
In the case of CC(C)C[C@H](N)C(=O)NC(C)(C)C [Example I-165], the “Activity of Leucine: % Activity” value is reported as “A to C”.
CC(C)CCC(N)C(=O)O (stereo not drawn) [Example I-41] was tested, and the “Activity of Leucine: % Activity” value was “A (% activity relative to leucine of ≥40%)”.
